Results: patent US20030125311A1, “Compounds capable of binding with the cytoskeleton” (priority 2002, published 2003)

Key:
[1] = biological target: fetal rat brain cytosol binding sites of pregnenolone (Rattus norvegicus, UniProt P15146); experiment: Equilibrium binding of PREG [3H] to fetal brain cytosol; conditions: mean±standard error, n=3
Description: Fetal brains are collected, and are rinsed, after the meninges have been removed, with a homogenization buffer at 4° C. [10 mM of Tris-HCl, at pH 8.5, containing 1.5 mM of EDTA, 1 mM of dithiothreitol, 10% of glycerol, Complete®, (a mixture of protease inhibitors, Roche Molecular Biochemical); termed TEDG buffer].
(§1) The supernatant is then centrifuged at 100,000 g for 1 h at 4° C. The samples are used immediately for the trials, or are stored in liquid nitrogen until the moment of their use.
(§2) Just before the binding trial, each sample is purified with a dextran-carbon suspension, and 2 ml samples of supernatant (purified cytosol) are added to a series of tubes containing 1 to 500 nM PREG [^3H], with or without unlabeled steroid in 1,000-fold excess.
(§3) The tubes are incubated at 45° C. for 30 min. The separation of bound and free steroid was carried out on a Sephadex LH-20® (Amersham Pharmacia Biotech) mini-column.
(§4) The counting of the radioactivity in the flasks was performed in a liquid scintillation spectrometer with attenuation correction (Tri-Carb 2100 TR®, Packard).
The equilibrium binding data are analyzed with the Mac Ligand program, adapted from Munson and Rodbard (17). […]
The bound steroid is separated by gel filtration on Sephadex LH20® at 0-4° C. The binding constants are determined with the Mac Ligand program.

[2] = tested on: tau protein; experiment: Saturable binding of PREG [3H] to purified tau protein; design: species or system calf; conditions: tau protein 25 μg/ml, 100 nM PREG [3H] ± 1,000-fold excess PREG
Description: The tau and MAP2 proteins are purified according to the protocol of Fellous et al. (12) by heat denaturation of the microtubules and gel filtration on a column, Sephacryl 300® being used instead of the Ultrogel ACA 34. The tau proteins are then Further purified according to the method of Lindwall and Cole (15).
Purified calf brain tubulin (90 μg/ml), MAP2 (45 μg/ml) or tau protein (25 μg/ml) is incubated with 100 nM of PREG [^3H], with or without a 1,000-fold excess of non-radioactive PREG.

[3] = biological target: adult rat brain cytosol compound which binds PREG (Rattus norvegicus, UniProt P15146); experiment: Equilibrium binding of PREG to adult rat brain cytosol
Chain of adult rat brain cytosol compound which binds PREG (P15146 whole entry, the tested form may be a part): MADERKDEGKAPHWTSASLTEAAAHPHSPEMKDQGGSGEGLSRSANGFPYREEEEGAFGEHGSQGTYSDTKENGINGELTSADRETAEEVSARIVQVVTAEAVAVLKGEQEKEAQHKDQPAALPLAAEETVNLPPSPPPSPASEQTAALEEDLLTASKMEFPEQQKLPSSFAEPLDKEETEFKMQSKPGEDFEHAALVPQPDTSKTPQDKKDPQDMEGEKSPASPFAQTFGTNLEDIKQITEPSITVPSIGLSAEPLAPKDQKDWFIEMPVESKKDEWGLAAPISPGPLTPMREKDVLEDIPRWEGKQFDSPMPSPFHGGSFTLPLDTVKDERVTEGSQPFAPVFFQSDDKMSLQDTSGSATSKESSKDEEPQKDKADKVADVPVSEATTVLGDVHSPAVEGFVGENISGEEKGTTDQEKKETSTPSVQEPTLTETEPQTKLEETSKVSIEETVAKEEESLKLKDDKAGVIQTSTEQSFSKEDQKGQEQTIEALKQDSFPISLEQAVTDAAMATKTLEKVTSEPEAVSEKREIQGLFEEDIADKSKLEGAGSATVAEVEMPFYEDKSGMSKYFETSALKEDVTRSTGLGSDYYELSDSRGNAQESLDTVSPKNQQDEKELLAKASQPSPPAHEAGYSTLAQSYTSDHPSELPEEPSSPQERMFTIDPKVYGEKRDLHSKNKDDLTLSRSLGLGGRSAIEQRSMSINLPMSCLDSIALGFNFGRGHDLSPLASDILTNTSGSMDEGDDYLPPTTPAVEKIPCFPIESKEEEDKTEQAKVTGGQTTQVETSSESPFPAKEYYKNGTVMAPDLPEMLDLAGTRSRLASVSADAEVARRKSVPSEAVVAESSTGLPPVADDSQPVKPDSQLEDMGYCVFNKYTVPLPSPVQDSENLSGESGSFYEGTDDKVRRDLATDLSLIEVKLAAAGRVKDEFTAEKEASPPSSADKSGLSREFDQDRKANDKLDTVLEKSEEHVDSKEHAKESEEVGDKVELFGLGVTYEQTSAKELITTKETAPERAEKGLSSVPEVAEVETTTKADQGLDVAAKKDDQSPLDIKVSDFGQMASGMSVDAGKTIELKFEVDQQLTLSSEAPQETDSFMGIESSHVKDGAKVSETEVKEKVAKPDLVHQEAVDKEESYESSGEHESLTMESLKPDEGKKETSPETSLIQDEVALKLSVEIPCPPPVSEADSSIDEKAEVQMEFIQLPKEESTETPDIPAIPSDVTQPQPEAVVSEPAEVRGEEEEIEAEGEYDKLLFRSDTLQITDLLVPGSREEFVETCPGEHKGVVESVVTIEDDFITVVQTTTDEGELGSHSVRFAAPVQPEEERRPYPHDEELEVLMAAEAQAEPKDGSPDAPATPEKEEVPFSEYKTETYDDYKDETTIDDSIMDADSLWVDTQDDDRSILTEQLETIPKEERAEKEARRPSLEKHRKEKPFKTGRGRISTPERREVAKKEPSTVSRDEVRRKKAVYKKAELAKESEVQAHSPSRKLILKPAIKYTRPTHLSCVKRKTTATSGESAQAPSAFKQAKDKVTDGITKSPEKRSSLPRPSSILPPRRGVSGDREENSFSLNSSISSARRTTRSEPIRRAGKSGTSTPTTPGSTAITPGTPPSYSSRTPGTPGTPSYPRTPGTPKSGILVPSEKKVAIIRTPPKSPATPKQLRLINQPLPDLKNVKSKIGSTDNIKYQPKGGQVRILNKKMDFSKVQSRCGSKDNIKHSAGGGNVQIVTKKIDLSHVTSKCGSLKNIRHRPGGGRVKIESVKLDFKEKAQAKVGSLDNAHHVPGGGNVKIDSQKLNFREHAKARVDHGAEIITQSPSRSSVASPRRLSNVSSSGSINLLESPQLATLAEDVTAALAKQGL
Description: Adult male rat brains are collected after perfusion with PBS containing 2 IU/ml of heparin. The brains are weighed and homogenized with 4 vol. of homogenization buffer in Potter glass/Teflon® homogenizers, and centrifuged at 800 g for 10 min.
as §1, §2, §3, §4

[4] = tested on: fetal rat brain neurons; experiment: Immunocytochemistry of fetal rat brain neuron cultures; type: cell-based; conditions: 1 μM for 2 days
Description: Primary cultures of E17 fetal neurons are performed according to El-Etr et al. (16). Briefly, this method consists of spreading the dissociated cells (200,000 cells/cm^2) on glass plates covered with poly-1-ornithine and cultured in a completely defined medium in 5% CO2 at 37° C. The culture conditions used permit a practically pure neuron population to be obtained.
24 h after seeding, 1 micromolar pregnenolone (final ethanol concentration 0.01%), or the solvent alone, is added and cultures are continued for 2 days. The cells are fixed in 4% paraformaldehyde, then frozen at −80° C. The cells are duly rehydrated by passages of 5 min in ethanol at concentrations of 100, 90 and 70%. After 2 washings in PBS, for 5 min, the cells are incubated in PBS containing 3% of BSA and 0.1% of Triton X100®, at ambient temperature for 1 h.
After 4 washings in PBS, the cells are incubated at 37° C. for 1 h, then at 4° C. for about 14 h, in the presence of either anti-α-tubulin monoclonal antibody diluted {fraction (1/2,000)}, or anti-MAP2 monoclonal antibody diluted {fraction (1/1,000)}, or anti-double-cortin antiserum diluted 1/300.
After 3 washings in PBS, the secondary antibody is added at ambient temperature, for 45 minutes. […]

Chain of fetal rat brain cytosol binding sites of pregnenolone (P15146 whole entry): as the sequence (P15146 whole entry, the tested form may be a part) above

maximum concentration of binding sites [1]: 1.2±0.1 pmol/mg of protein | Bmax [3]: 0.75 pmol/mg of protein
SMILES: CC(=O)C1CCC2C3CC=C4CC(O)CCC4(C)C3CCC12C (centres unmarked) [Pregnenolone]
saturable binding to tau protein [2]: neither tubulin, nor tau protein, nor rabbit IgG binds PREG [^3H] in a saturable manner | immunolabeling of MAP2 [4]: increases the immunolabeling of MAP2 of the cell bodies and induces its extension to close nerve cells | staining with anti-α tubulin or anti-double-cortin antibodies [4]: does not show any difference
